Assay results published in patent US4267192A, “Method for treating inflammation” (priority 1980, dated 1981).
Read-outs that look alike come from different tables or passages of the source.

Tests used:
[1] = system: carrageenan-induced edema in the hind paw of the rat; test: rat carrageenan edema test (hind paw); format: in vivo, rat (male Sprague-Dawley); settings: for Change in paw volume (ml) from 0-3 hr: mean ± S.E.; for % Change in paw edema: vs control
Protocol: (§1) Vehicle alone is administered as a control. Sixty minutes after drug administration edema is induced by an injection of 0.1 ml. of a 1% carrageenan solution is saline into the subplantar tissue of the rat's right hind paw. Two minutes later, paw volume is measured volumetrically with a plethysmograph and again 3 hours later. The mean volume of swelling for the control group is calculated and compared to the test groups. Percent change in paw edema is calculated and analyzed statistically (unpaired, Student's t-test).

[2] = background; in words; cited from earlier work
[3] = system: polyarthritis induced by Mycobacterium butyricum or tuberculosis in rats; settings: rat; for Increase in Left Paw Volume (ml.) 0-16 days / Increase in Right Paw Volume (ml.) 0-4 days: mean ± S.E.
Protocol: (§2) Polyarthritis is induced in groups of 6-10 Sprague-Dawley rats weighing between 180-220 g. by a subcutaneous injection into the right paw of dessicated Mycobacterium butyricum or tuberculosis (0.5 mg/0.1 ml.) suspended in light mineral oil. […] Both hind paw volumes (ml.) are measured by mercury plethysmograph on day 0 or at the time of injection of the complete adjuvant. Increases in paw volume (viz. edema) are determined for both paws on days 4 and 16. The change in body weight from day 0 to day 16 is also calculated. Statistical analysis of differences in paw edemas and body weight is performed by using the unpaired. Student's t-test.

[4] = system: carrageenan-induced edema in the hind paw of normal and adrenalectomized rats; test: carrageenan paw edema in normal and adrenalectomized rats; format: in vivo, rat
Protocol: as §1
Normal rats received the same doses as adrenalectomized rats.

prostaglandin synthetase = target: T1, prostaglandin synthetase (Ovis aries, UniProt P05979); settings: in words; cited from earlier work
T1 sequence (P05979 25-600): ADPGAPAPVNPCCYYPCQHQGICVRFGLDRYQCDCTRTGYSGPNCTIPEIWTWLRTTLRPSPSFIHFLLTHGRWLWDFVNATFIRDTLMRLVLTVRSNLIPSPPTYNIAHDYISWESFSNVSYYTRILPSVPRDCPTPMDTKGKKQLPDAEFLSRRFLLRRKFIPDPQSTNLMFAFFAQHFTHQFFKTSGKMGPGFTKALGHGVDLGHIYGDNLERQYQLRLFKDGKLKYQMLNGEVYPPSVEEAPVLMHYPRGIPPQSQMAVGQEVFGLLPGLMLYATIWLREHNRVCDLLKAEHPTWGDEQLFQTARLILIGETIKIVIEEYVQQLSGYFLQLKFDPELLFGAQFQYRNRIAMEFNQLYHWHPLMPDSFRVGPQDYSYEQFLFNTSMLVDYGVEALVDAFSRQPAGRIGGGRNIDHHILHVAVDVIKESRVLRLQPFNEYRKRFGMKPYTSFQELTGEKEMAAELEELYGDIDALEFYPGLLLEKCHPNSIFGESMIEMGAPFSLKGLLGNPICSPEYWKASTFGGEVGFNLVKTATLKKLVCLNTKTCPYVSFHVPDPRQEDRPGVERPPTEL

[5] = system: rat stomach (gastric ulcers, gastric swelling); settings: especially in long-term therapy; in words; cited from earlier work
[6] = system: polyarthritis induced by Mycobacterium butyricum or tuberculosis in rats; settings: rat; cited from earlier work
[7] = system: established adjuvant arthritis in rats; test: established adjuvant arthritis, dosing on days 16, 17 and 18; settings: rat
Protocol: as §2
The changes in left paw edema are measured at the end of 19 days, 23 days and 30 days.

[8] = system: rat stomach (gastric ulcers, gastric swelling); format: in vivo, rat (male Charles River, Sprague-Dawley); settings: for Number of Animals With Gastric Swelling / Number of Animals With Gastric Ulcers: rat, 4 hours after dosing
Protocol: The rats are divided into groups 6-10 and dosed by the oral route with test compound, on a mg/kg. body weight basis, or vehicle control, 0.5% carboxymethylcellulose, in a volume of 3 ml. per rat. Four hours after dosing, the rats are decapitated and exsanguinated. Stomachs are removed and examined for gastric swelling and then opened and washed for visual inspection of gastric ulcers. Only one lesion or gastric bleeding is necessary for a positive response. Data is reported quantally.

[9] = system: prostaglandin synthesis in gastric mucosa; settings: background; in words; cited from earlier work
[10] = oral 180 mg/kg, Table 1 group e
[11] = oral 25.0 mg/kg daily, Table 3 group b
[12] = Adrenalectomized Rats, oral 300 mg/kg
[13] = oral 270 mg/kg, Table 1 group d
[14] = oral 120 mg/kg, Table 1 group f
[15] = oral 240 mg/kg, Table 1 group f
[16] = oral 480 mg/kg, Table 1 group f
[17] = Adrenalectomized Rats, oral 5 mg/kg
[18] = oral 0.33 mg/kg, days 16, 17, 18
[19] = oral 1.00 mg/kg, days 16, 17, 18
[20] = oral 3.00 mg/kg, days 16, 17, 18
[21] = oral 0.1 mg/kg daily, Table 3 group a
[22] = oral 0.3 mg/kg daily, Table 3 group a
[23] = oral 1.0 mg/kg daily, Table 3 group a
[24] = oral 3.0 mg/kg daily, Table 3 group a

## CCOC(=O)C=C1c2ccccc2C=Cc2ccccc21 [EDCHA, ethyl(5H-dibenzo[a,d]cyclohepten-5-ylidene)acetate]
[1]; oral
  oral doses that inhibit carrageenan paw edema: 10 to 180 mg/kg
[1]; oral 20 mg/kg, Table 1 group e
  Change in paw volume (ml) from 0-3 hr: 1.11 ± 0.08 mL
  % Change in paw edema: -4%
[1]; oral 60 mg/kg, Table 1 group e
  Change in paw volume (ml) from 0-3 hr: 0.98 ± 0.06 mL
  % Change in paw edema: -15%
[1]; [10]
  Change in paw volume (ml) from 0-3 hr: 0.87 ± 0.04 mL
  % Change in paw edema: -25%

## CCCCC1C(=O)N(c2ccccc2)N(c2ccccc2)C1=O [Phenylbutazone, phenylbutazone, reference compound]
[2]
  bone marrow depression: can cause bone marrow depression
[3]; [11]
  % Change of Left Paw Edema at Day 16: -39%
  % Change of Right Paw Edema at Day 4: -44%
  Change In Body Weight (mean ± S.E.) 0-16 days: 24.0 ± 6.3
  Increase in Left Paw Volume (ml.) 0-16 days: 0.45 ± .13 mL
  Increase in Right Paw Volume (ml.) 0-4 days: 1.04 ± .05 mL

## CC(=O)Oc1ccccc1C(=O)O [Aspirin, aspirin, reference compound]
[4]; [12]
  % Inhibition: 34%
  Edema (ml) ± S.E.: 0.64 ± .04 mL
[4]; Adrenalectomized Rats, oral 300 mg/kg, footnote a
  animals died: 1/6
[4]; Normal Rats, oral 300 mg/kg
  % Inhibition: 44%
  Mean Edema (ml) ± S.E.: 0.52 ± .07 mL
[1]; oral
  estimated ED50 (carrageenan paw edema): ~110 mg/kg
[1]; oral 30 mg/kg, Table 1 group d
  Change in paw volume (ml) from 0-3 hr: 0.63 ± 0.02 mL
  % Change in paw edema: -28%
[1]; oral 90 mg/kg, Table 1 group d
  Change in paw volume (ml) from 0-3 hr: 0.54 ± 0.04 mL
  % Change in paw edema: -39%
[1]; [13]
  Change in paw volume (ml) from 0-3 hr: 0.29 ± 0.10 mL
  % Change in paw edema: -67%
Prostaglandin synthetase
  appreciable effects on prostaglandin synthetase activity: appreciable effects on prostaglandin synthetase activity
[5]
  gastric ulcerogenicity: proven gastric ulcerogens
[6]
  ED50 (adjuvant arthritis test), has been assessed: approximately 140 mg/kg

## COC(=O)C=C1c2ccccc2C=Cc2ccccc21 [MDCHA, Methyl(5H-dibenzo[a,d]cyclohepten-5-ylidene)acetate]
[1]; oral 60 mg/kg, Table 1 group f
  Change in paw volume (ml) from 0-3 hr: 0.68 ± 0.08 mL
  % Change in paw edema: -8%
[1]; [14]
  Change in paw volume (ml) from 0-3 hr: 0.59 ± 0.08 mL
  % Change in paw edema: -20%
[1]; [15]
  Change in paw volume (ml) from 0-3 hr: 0.68 ± 0.10 mL
  % Change in paw edema: -8%
[1]; [16]
  Change in paw volume (ml) from 0-3 hr: 0.59 ± 0.07 mL
  % Change in paw edema: -20%

## COc1ccc2c(c1)c(CC(=O)O)c(C)n2C(=O)c1ccc(Cl)cc1 [Indomethacin, indomethacin, reference compound]
[4]; [17]
  % Inhibition: 59%
  Edema (ml) ± S.E.: 0.42 ± .09 mL
[4]; Normal Rats, oral 5 mg/kg
  % Inhibition: 60%
  Mean Edema (ml) ± S.E.: 0.42 ± .09 mL
[1]; oral
  estimated ED50 (carrageenan paw edema): ~2.7 mg/kg
[1]; oral 1 mg/kg, Table 1 group b
  Change in paw volume (ml) from 0-3 hr: 0.65 ± 0.06 mL
  % Change in paw edema: -36%
[1]; oral 3 mg/kg, Table 1 group b
  Change in paw volume (ml) from 0-3 hr: 0.50 ± 0.07 mL
  % Change in paw edema: -51%
[1]; oral 5 mg/kg, Table 1 group e
  Change in paw volume (ml) from 0-3 hr: 0.54 ± 0.08 mL
  % Change in paw edema: -53%
[1]; oral 9 mg/kg, Table 1 group b
  Change in paw volume (ml) from 0-3 hr: 0.32 ± 0.02 mL
  % Change in paw edema: -69%
Prostaglandin synthetase
  appreciable effects on prostaglandin synthetase activity: appreciable effects on prostaglandin synthetase activity
[5]
  gastric ulcerogenicity: proven gastric ulcerogens
[7]; 3.00 mg/kg, days 16, 17 and 18
  rats died by the 23rd day: six out of ten rats had died
[7]; [18]
  % Change from Control, left paw edema (day 0-19): -31%
  % Change from Control, left paw edema (day 0-23): +6%
  % Change from Control, left paw edema (day 0-30): -6%
  Increase in left paw edema ml. (day 0-19): 0.70 ± 0.11 mL
  Increase in left paw edema ml. (day 0-23): 1.02 ± 0.14 mL
  Increase in left paw edema ml. (day 0-30): 1.41 ± 0.20 mL
[7]; [19]
  % Change from Control, left paw edema (day 0-19): -40%
  % Change from Control, left paw edema (day 0-23): +4%
  % Change from Control, left paw edema (day 0-30): -22%
  Increase in left paw edema ml. (day 0-19): 0.62 ± 0.05 mL
  Increase in left paw edema ml. (day 0-23): 1.00 ± 0.06 mL
  Increase in left paw edema ml. (day 0-30): 1.18 ± 0.10 mL
[7]; [20]
  % Change from Control, left paw edema (day 0-19): -60%
  Increase in left paw edema ml. (day 0-19): 0.41 ± 0.06 mL
  deaths (day 0-23): 6/10
  deaths (day 0-30): 6/10
[3]; [21]
  % Change of Left Paw Edema at Day 16: +5.1%
  % Change of Right Paw Edema at Day 4: -31%
  Change In Body Weight (mean ± S.E.) 0-16 days: 16.9 ± 9.0
  Increase in Left Paw Volume (ml.) 0-16 days: 0.82 ± .12 mL
  Increase in Right Paw Volume (ml.) 0-4 days: 1.07 ± .15 mL
[3]; [22]
  % Change of Left Paw Edema at Day 16: -33%
  % Change of Right Paw Edema at Day 4: -30%
  Change In Body Weight (mean ± S.E.) 0-16 days: 25.7 ± 7.8
  Increase in Left Paw Volume (ml.) 0-16 days: 0.52 ± .07 mL
  Increase in Right Paw Volume (ml.) 0-4 days: 1.09 ± .06 mL
[3]; [23]
  % Change of Left Paw Edema at Day 16: -55%
  % Change of Right Paw Edema at Day 4: -42%
  Change In Body Weight (mean ± S.E.) 0-16 days: 36.5 ± 7.9
  Increase in Left Paw Volume (ml.) 0-16 days: 0.35 ± .03 mL
  Increase in Right Paw Volume (ml.) 0-4 days: 0.90 ± .11 mL
[3]; [24]
  % Change of Left Paw Edema at Day 16: -65%
  % Change of Right Paw Edema at Day 4: -37%
  Change In Body Weight (mean ± S.E.) 0-16 days: 49.8 ± 6.2
  Increase in Left Paw Volume (ml.) 0-16 days: 0.27 ± .03 mL
  Increase in Right Paw Volume (ml.) 0-4 days: 0.99 ± .05 mL
[3]; oral, daily
  estimated ED50 (adjuvant arthritis test): ~0.9 mg/kg
[8]; dosage levels indicated for treatment of inflammatory conditions
  effects on the gastric tract: significant effects on the gastric tract
[8]; oral 2.5 mg/kg
  Number of Animals With Gastric Swelling: 0/10
  Number of Animals With Gastric Ulcers: 0/9
[8]; oral 5.0 mg/kg
  Number of Animals With Gastric Swelling: 0/10
  Number of Animals With Gastric Ulcers: 9/10
[8]; oral 10.0 mg/kg
  Number of Animals With Gastric Swelling: 0/10
  Number of Animals With Gastric Ulcers: 10/10
[9]
  inhibitory effect on prostaglandin synthesis in gastric mucosa: marked inhibitory effect on prostaglandin synthesis in gastric mucosa
